Toxic doses and inconclusive results are not listed. Cut-off read from the data, not from the text of the source: active = T/C of 150% or more; inactive = T/C below 125%.
Test system: L1210 leukemia ip in BDF1 mice, survival T/C
Experiment: NCI In Vivo Anticancer Drug Screen. Data for tumor model L1210 Leukemia (intraperitoneal) in B6D2F1 (BDF1) mice
Conditions: endpoint: mean survival time, higher = longer survival
Method in brief: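 Value reflects the ratio of survival in compound-treated mice to survival in vehicle-treated controls, with both groups carrying the same transplanted tumor.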

[1] = dose: 100.0 mg/kg/injection, schedule: Q01DX001 (ip), vehicle: saline with Tween-80
[2] = dose: 200.0 mg/kg/injection, schedule: Q01DX001 (ip), vehicle: saline with Tween-80
[3] = dose: 400.0 mg/kg/injection, schedule: Q01DX001 (ip), vehicle: saline with Tween-80
[4] = dose: 100.0 mg/kg/injection, schedule: Q01DX009 (ip), vehicle: saline with Tween-80
[5] = dose: 100.0 mg/kg/injection, schedule: Q04DX003 (ip), vehicle: saline with Tween-80
[6] = dose: 200.0 mg/kg/injection, schedule: Q01DX009 (ip), vehicle: saline with Tween-80
[7] = dose: 200.0 mg/kg/injection, schedule: Q04DX003 (ip), vehicle: saline with Tween-80
[8] = dose: 400.0 mg/kg/injection, schedule: Q04DX003 (ip), vehicle: saline with Tween-80
[9] = dose: 100.0 mg/kg/injection, schedule: Q01DX009 (ip), vehicle: Klucel (hydroxypropylcellulose) (HPC)
[10] = dose: 200.0 mg/kg/injection, schedule: Q01DX009 (ip), vehicle: Klucel (hydroxypropylcellulose) (HPC)
[11] = dose: 400.0 mg/kg/injection, schedule: Q01DX009 (ip), vehicle: Klucel (hydroxypropylcellulose) (HPC)
[12] = dose: 100.0 mg/kg/injection, schedule: Q04DX003 (ip), vehicle: Klucel (hydroxypropylcellulose) (HPC)
[13] = dose: 200.0 mg/kg/injection, schedule: Q04DX003 (ip), vehicle: Klucel (hydroxypropylcellulose) (HPC)
[14] = dose: 400.0 mg/kg/injection, schedule: Q04DX003 (ip), vehicle: Klucel (hydroxypropylcellulose) (HPC)
[15] = dose: 100.0 mg/kg/injection, schedule: Q04DX003 (ip), vehicle: saline
[16] = dose: 200.0 mg/kg/injection, schedule: Q04DX003 (ip), vehicle: saline
[17] = dose: 400.0 mg/kg/injection, schedule: Q04DX003 (ip), vehicle: saline
[18] = dose: 100.0 mg/kg/injection, schedule: Q01DX Z (ip), vehicle: methylcellulose (MC)

Measured: T/C

CC(=O)C=P(c1ccccc1)(c1ccccc1)c1ccccc1
inactive: dose: 50.0 mg/kg/injection, schedule: Q01DX001 (ip), vehicle: carboxymethylcellulose (CMC) 113 % of control | dose: 100.0 mg/kg/injection, schedule: Q01DX001 (ip), vehicle: carboxymethylcellulose (CMC) 97 % of control | dose: 200.0 mg/kg/injection, schedule: Q01DX001 (ip), vehicle: carboxymethylcellulose (CMC) 101 % of control

O=S(=O)(Nc1ccc2ccccc2c1)c1ccccc1
inactive: [1] 103 % of control | [2] 97 % of control | [3] 97 % of control

NC(=O)c1ncn[nH]1
inactive: dose: 50.0 mg/kg/injection, schedule: Q01DX009 (ip), vehicle: saline with Tween-80 113 % of control | dose: 50.0 mg/kg/injection, schedule: Q04DX003 (ip), vehicle: saline with Tween-80 104 % of control | [4] 108 % of control | [5] 110 % of control | [6] 120 % of control | [7] 106 % of control

O=C(Cc1cccc([N+](=O)[O-])c1)Nc1ccc(S(=O)(=O)F)cc1
inactive: dose: 100.0 mg/kg/injection, schedule: Q01DX001 (ip), vehicle: saline 112 % of control | dose: 200.0 mg/kg/injection, schedule: Q01DX001 (ip), vehicle: saline 111 % of control | dose: 400.0 mg/kg/injection, schedule: Q01DX001 (ip), vehicle: saline 110 % of control

O=C(O)c1[nH]c(=O)[nH]c(=O)c1N1CCCCC1
inactive: dose: 12.0 mg/kg/injection, schedule: Q01DX001 (ip), vehicle: saline 106 % of control | dose: 25.0 mg/kg/injection, schedule: Q01DX001 (ip), vehicle: saline 101 % of control | dose: 25.0 mg/kg/injection, schedule: Q01DX009 (ip), vehicle: Klucel (hydroxypropylcellulose) (HPC) 105 % of control | dose: 50.0 mg/kg/injection, schedule: Q01DX009 (ip), vehicle: Klucel (hydroxypropylcellulose) (HPC) 92 % of control

CCCCCCCCCCCCOc1ccc2ccccc2c1
inactive: [5] 97 % of control | [7] 95 % of control | [8] 108 % of control

Cc1ccc(N2CCN(c3ccc([N+](=O)[O-])cc3)CC2)cc1Cl
inactive: [5] 100 % of control | [7] 100 % of control | [8] 98 % of control

N#CCCN1c2ccccc2Sc2ccc(Cl)cc21
inactive: [9] 96 % of control | [10] 101 % of control | [11] 98 % of control

O=C1/C(=C/c2ccncc2)CCc2cc(Cl)ccc21
inactive: dose: 100.0 mg/kg/injection, schedule: Q04DX003 (ip), vehicle: carboxymethylcellulose (CMC) 107 % of control | dose: 200.0 mg/kg/injection, schedule: Q04DX003 (ip), vehicle: carboxymethylcellulose (CMC) 111 % of control | dose: 400.0 mg/kg/injection, schedule: Q04DX003 (ip), vehicle: carboxymethylcellulose (CMC) 96 % of control

Cc1nc(SCc2ccc(Cl)cc2)nc(N2CC2)c1Br
inactive: dose: 59.0 mg/kg/injection, schedule: Q01DX Z (ip), vehicle: methylcellulose (MC) 94 % of control | dose: 88.0 mg/kg/injection, schedule: Q01DX Z (ip), vehicle: methylcellulose (MC) 86 % of control | dose: 200.0 mg/kg/injection, schedule: Q01DX Z (ip), vehicle: methylcellulose (MC) 95 % of control

CC(=O)Nc1cc(C(=O)O)cc(C(F)(F)F)c1
inactive: [4] 96 % of control | [5] 96 % of control | [6] 100 % of control | [7] 102 % of control | dose: 400.0 mg/kg/injection, schedule: Q01DX009 (ip), vehicle: saline with Tween-80 97 % of control | [8] 94 % of control

CCOC(=O)c1cnc[nH]c1=O
inactive: [12] 100 % of control | [13] 100 % of control | [14] 87 % of control

CCN(CC)CCNC(=O)Nc1ccc(OC)cc1
inactive: [9] 96 % of control | [10] 103 % of control

COc1ccccc1N=C(N)N=C(N)N
inactive: dose: 75.0 mg/kg/injection, schedule: Q01DX001 (ip), vehicle: saline 96 % of control | dose: 150.0 mg/kg/injection, schedule: Q01DX001 (ip), vehicle: saline 104 % of control

COc1ccc(Cl)cc1NC(=O)c1ccccc1C(=O)O
inactive: [9] 98 % of control | [12] 101 % of control | [10] 102 % of control | [13] 96 % of control | [11] 94 % of control | [14] 103 % of control

C/C(=C/c1c(Br)cc(Br)c(N)c1Br)C(=O)O
inactive: [15] 100 % of control | [16] 102 % of control | [17] 102 % of control

O=C1CCN(Cc2ccccc2)C(=S)N1
inactive: [18] 93 % of control

Cc1nc2cccc3ccc4cc5ccccc5c1c4c32
inactive: [5] 89 % of control | [7] 93 % of control

C=CC1CCC2OC(=O)C(=C)C2C1 (configuration not stated)
inactive: [15] 101 % of control | [16] 95 % of control | [17] 101 % of control

O=C1c2ccccc2C(=O)N1CN1CCOCC1
inactive: [1] 105 % of control | [2] 94 % of control | [3] 98 % of control

CC(=O)Nc1ccc(S(=O)(=O)Nc2ccc(C(=O)O)cc2)cc1
inactive: [12] 100 % of control | [13] 87 % of control | [14] 92 % of control

O=C(Cc1ccccc1)Nc1ccc(Cl)c(Cl)c1
inactive: dose: 100.0 mg/kg/injection, schedule: Q04DX002 (ip), vehicle: Klucel (hydroxypropylcellulose) (HPC) 100 % of control | dose: 200.0 mg/kg/injection, schedule: Q04DX002 (ip), vehicle: Klucel (hydroxypropylcellulose) (HPC) 100 % of control | dose: 400.0 mg/kg/injection, schedule: Q04DX002 (ip), vehicle: Klucel (hydroxypropylcellulose) (HPC) 96 % of control

Cn1nc(C(=O)O)c(=O)[nH]c1=O
inactive: [18] 97 % of control
